This is an account of results in patent publication US6472418B1, “Non-peptide NK1 receptors antagonists” (Warner-Lambert Company, priority 1998, dated 2002).

In one test the target is T1, Human NK1 Receptor (Homo sapiens, UniProt P25103).
T1 construct: endogenous in cells; host or cells: Human lymphoma IM9 cells (whole cells)
T1 sequence (P25103 whole entry): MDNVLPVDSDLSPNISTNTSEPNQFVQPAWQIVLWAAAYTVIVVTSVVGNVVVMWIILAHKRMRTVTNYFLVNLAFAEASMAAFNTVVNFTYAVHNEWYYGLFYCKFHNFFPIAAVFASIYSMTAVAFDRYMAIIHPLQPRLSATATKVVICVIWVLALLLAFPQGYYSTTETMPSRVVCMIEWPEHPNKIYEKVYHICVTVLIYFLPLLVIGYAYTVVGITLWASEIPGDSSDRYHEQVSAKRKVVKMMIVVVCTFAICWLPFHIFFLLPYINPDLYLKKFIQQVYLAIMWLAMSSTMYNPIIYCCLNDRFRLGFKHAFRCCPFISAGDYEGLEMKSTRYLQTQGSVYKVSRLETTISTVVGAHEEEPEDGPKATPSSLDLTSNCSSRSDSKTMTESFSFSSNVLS
The experiment in a line: In Vitro Human NK1 Receptor Binding Assay ([125I]Bolton-Hunter substance P displacement, IM9 cells). As to conditions: Human lymphoma IM9 cells, [125I]Bolton-Hunter substance P; Table 3, array-synthesis products; read-out: IC50 (nM) hNK1. An outline of the steps:
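Test compounds competed with 0.05-0.1 nM [125I]Bolton-Hunter substance P for binding to intact IM9 cells over 50 min at 21° C, pH 7.4 buffer with MnCl2 and peptidase inhibitors. […] [Sar9, Met(O2)11] substance P gave non-specific binding. Bound counts were measured after filtration and fitted iteratively.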
Turning to `O=C(NCc1ccco1)C(Cc1c[nH]c2ccccc12)NCc1cc2ccccc2o1` (stereo not drawn) [Example 261, 2-[(Benzofuran-2-ylmethyl)-amino]-N-furan-2-ylmethyl-3-(1H-indol-3-yl)-propionamide], the IC50 was 406 nM.

With `O=C(NCc1cc(F)ccc1F)C(Cc1c[nH]c2ccccc12)NCc1cc2ccccc2o1` (stereo not drawn) [Example 204, 2-[(Benzofuran-2-ylmethyl)-amino]-N-(2,5-difluoro-benzyl)-3-(1H-indol-3-yl)-propionamide], the IC50 came to 68 nM.

Consider `O=C(NC1CC1c1ccccc1)C(Cc1c[nH]c2ccccc12)NCc1cc2ccccc2o1` (stereo not drawn) [Example 224, 2-[(Benzofuran-2-ylmethyl)-amino]-3-(1H-indol-3-yl)-N-(2-phenyl-cyclopropyl)-propionamide], for which the IC50 amounted to 2900 nM.

As to `O=C(NCc1cccc(C(F)(F)F)c1)C(Cc1c[nH]c2ccccc12)NCc1cc2ccccc2o1` (stereo not drawn) [Example 228, 2-[(Benzofuran-2-ylmethyl)-amino]-3-(1H-indol-3-yl)-N-(3-trifluoromethyl-benzyl)-propionamide], the IC50 is 82 nM.

As for `CC(NC(=O)C(Cc1c[nH]c2ccccc12)NCc1cc2ccccc2o1)c1ccc(Cl)cc1` (stereo not drawn) [Example 264, 2-[(Benzofuran-2-ylmethyl)-amino]-N-[1(4-chloro-phenyl)-ethyl]-3-(1H-indol-3-yl)-propionamide], the IC50 came out at 7 nM.

For the compound `O=C(NCc1ccc(Cl)cc1)C(Cc1c[nH]c2ccccc12)NCc1cc2ccccc2o1` (stereo not drawn) [Example 258, 2-[(Benzofuran-2-ylmethyl)-amino]-N-(4-chloro-benzyl)-3-(1H-indol-3-yl)-propionamide], the IC50 was 46 nM.

Consider `CC(NC(=O)C(Cc1c[nH]c2ccccc12)NCc1cc2ccccc2o1)c1ccsc1` (stereo not drawn) [Example 236, 2-[(Benzofuran-2-ylmethyl)-amino]-3-(1H-indol-3-yl)-N-(1-thiophen-3-yl-ethyl)-propionamide], for which the IC50 turned out to be 7 nM.

Still in this test, the particulars now being: Table 4; [125I]Bolton-Hunter substance P displacement, human IM9 cells; read-out: IC50 (nM) hNK1.
As to `CC(NC(=O)C(C)(Cc1c[nH]c2ccccc12)NCC(Cc1ccccc1)c1ccccc1)c1ccccc1` (stereo not drawn) [compound 332, 2-(2,3-Diphenyl-propylamino)-3-(1H-indol-3-yl)-2-methyl-N-(1-phenyl-ethyl)-propionamide], the IC50 worked out at 4940 nM.

Take `CC(NC(=O)C(C)(Cc1c[nH]c2ccccc12)NCc1c[nH]c2ccccc12)c1ccccc1` (stereo not drawn) [compound 355, 3-(1H-Indol-3-yl)-2-[(1H-indol-3-ylmethyl)-amino]-2-methyl-N-(1-phenyl-ethyl)-propionamide]: the IC50 came out at 1050 nM.

For `CC(NC(=O)C(C)(Cc1c[nH]c2ccccc12)NCc1ccc(Oc2ccccc2)cc1)c1ccccc1` (stereo not drawn) [compound 347, 3-(1H-Indol-3-yl)-2-methyl-2-(4-phenoxy-benzylamino)-N-(1-phenyl-ethyl)-propionamide], the IC50 was determined as 3380 nM.

Take “3-(1H-Indol-3-yl)-2-methyl-N-(1-phenyl-ethyl)-2-[(pyridin-4-ylmethyl)-amino]-propionamide [compound 313]”: the IC50 came out at 50 nM.

Consider `COc1ccc2cc(CNC(C)(Cc3c[nH]c4ccccc34)C(=O)NC(C)c3ccccc3)oc2c1` (stereo not drawn) [compound 319, 3-(1H-Indol-3-yl)-2-[(6-methoxy-benzofuran-2-ylmethyl)-amino]-2-methyl-N-(1-phenyl-ethyl)-propionamide], for which the half-inhibitory concentration (IC50) was determined as 2100 nM.

Take `CC(NC(=O)C(C)(Cc1c[nH]c2ccccc12)NCc1ccc(-c2ccc([N+](=O)[O-])cc2)o1)c1ccccc1` (stereo not drawn) [compound 353, 3-(1H-Indol-3-yl)-2-methyl-2-{[5-(4-nitro-phenyl)-furan-2-ylmethyl]-amino}-N-(1-phenyl-ethyl)-propionamide]: the IC50 worked out at 13 nM.

The same test, now with this note: Table 5; [125I]Bolton-Hunter substance P displacement, human IM9 cells; read-out: IC50 (nM) hNK1.
Regarding `CC(NC(=O)C(Cc1c[nH]c2ccccc12)NCc1ccsc1)c1ccccc1` (stereo not drawn) [compound 404], the IC50 came out at 2390 nM.

`CC(NC(=O)C(Cc1c[nH]c2ccccc12)NCc1ccc(OCCCC(C)(C)C(=O)O)cc1)c1ccccc1` (stereo not drawn) [compound 364]: the IC50 is 1250 nM.

Staying with this test, now noted: human NK1 receptor, IM9 cells, [125I]Bolton-Hunter substance P; read-out: IC50 (nM) hNK1.
Consider `CC(Cc1c[nH]cn1)NC(=O)C(C)(Cc1c[nH]c2ccccc12)NCc1cc2ccccc2o1` (stereo not drawn) [compound 90, 2-[(Benzofuran-2-ylmethyl)-amino]-N-[2-(1H-imidazol-4-yl)-1-methyl-ethyl]-3-(1H-indol-3-yl)-2-methyl-propionamide], for which the half-inhibitory concentration (IC50) is above 10000 nM.

With `CC(Cc1c[nH]c2ccccc12)(NCc1cc2ccccc2o1)C(=O)NCc1ccccc1F` (stereo not drawn) [compound 180, 2-[(Benzofuran-2-ylmethyl)-amino]-N-(2-fluoro-benzyl)-3-(1H-indol-3-yl)-2-methyl-propionamide], the IC50 was found to be 266 nM.

Regarding `CC(Cc1c[nH]c2ccccc12)(NCc1cc2ccccc2o1)C(=O)NCCCN1CCOCC1` (stereo not drawn) [compound 185, 2-[(Benzofuran-2-ylmethyl)-amino]-3-(1H-indol-3-yl)-2-methyl-N-(3-morpholin-4-yl-propyl)-propionamide], the IC50 was above 10000 nM.

Consider `CC(Cc1c[nH]c2ccccc12)(NCc1cc2ccccc2o1)C(=O)NCC(CC(=O)O)c1ccccc1` (stereo not drawn) [compound 152, 4-[2-[(Benzofuran-2-ylmethyl)-amino]-3-(1H-indol-3-yl)-2-methyl-propionylamino]-3-phenyl-butyric acid], for which the IC50 is above 10000 nM.

With `CC(Cc1c[nH]c2ccccc12)(NCc1cc2ccccc2o1)C(=O)NCCN1CCCC1=O` (stereo not drawn) [compound 99, 2-[(Benzofuran-2-ylmethyl)-amino]-3-(1H-indol-3-yl)-2-methyl-N-[2-(2-oxo-pyrrolidin-1-yl)-ethyl]-propionamide], the IC50 is above 10000 nM.

Take `CN1CCCC1CCNC(=O)C(C)(Cc1c[nH]c2ccccc12)NCc1cc2ccccc2o1` (stereo not drawn) [compound 52, 2-[(Benzofuran-2-ylmethyl)-amino]-3-(1H-indol-3-yl)-2-methyl-N-[2-(1-methyl-pyrrolidin-2-yl)-ethyl]-propionamide]: the IC50 was above 10000 nM.

As for `CC(Cc1c[nH]c2ccccc12)(NCc1cc2ccccc2o1)C(=O)NCCN1CCOCC1` (stereo not drawn) [compound 128, 2-[(Benzofuran-2-ylmethyl)-amino]-3-(1H-indol-3-yl)-2-methyl-N-(2-morpholin-4-yl-ethyl)-propionamide], the IC50 was above 10000 nM.

Consider `CC(Cc1c[nH]c2ccccc12)(NCc1cc2ccccc2o1)C(=O)NC(CO)c1ccccc1` (stereo not drawn) [compound 29, 2-[(Benzofuran-2-ylmethyl)-amino]-N-(2-hydroxy-1-phenyl-ethyl)-3-(1H-indol-3-yl)-2-methyl-propionamide], for which the IC50 stood at 7 nM.

With `CC(Cc1c[nH]c2ccccc12)(NCc1cc2ccccc2o1)C(=O)NC1CCc2ccccc2C1` (stereo not drawn) [compound 111, 2-[(Benzofuran-2-ylmethyl)-amino]-3-(1H-indol-3-yl)-2-methyl-N-(1,2,3,4-tetrahydro-naphthalen-2-yl)-propionamide], the IC50 was above 10000 nM.

With `CC1(CNC(=O)C(C)(Cc2c[nH]c3ccccc23)NCc2cc3ccccc3o2)CCCO1` (stereo not drawn) [compound 136, 2-[(Benzofuran-2-ylmethyl)-amino]-3-(1H-indol-3-yl)-2-methyl-N-(2-methyl-tetrahydro-furan-2-ylmethyl)-propionamide], the concentration for half-maximal inhibition (IC50) is above 10000 nM.

In the case of `CC(Cc1c[nH]c2ccccc12)(NCc1cc2ccccc2o1)C(=O)NCC1(c2ccco2)CCC1` (stereo not drawn) [compound 117, 2-[(Benzofuran-2-ylmethyl)-amino]-N-(1-furan-2-yl-cyclobutylmethyl)-3-(1H-indol-3-yl)-2-methyl-propionamide], the IC50 is above 10000 nM.

In the case of `CC(NC(=O)C(C)(Cc1c[nH]c2ccccc12)NCc1cc2ccccc2o1)c1ccc(Cl)s1` (stereo not drawn) [compound 118, 2-[(Benzofuran-2-ylmethyl)-amino]-N-[1-(5-chloro-thiophen-2-yl)-ethyl]-3-(1H-indol-3-yl)-2-methyl-propionamide], the IC50 was determined as 45 nM.

As to `COC(=O)c1ccc(CNC(=O)C(C)(Cc2c[nH]c3ccccc23)NCc2cc3ccccc3o2)c(OC)c1` (stereo not drawn) [compound 81, 4-{[2-[(Benzofuran-2-ylmethyl)-amino]-3-(1H-indol-3-yl)-2-methyl-propionylamino]-methyl}-3-methoxy-benzoic acid methyl ester], the concentration for half-maximal inhibition (IC50) is above 10000 nM.

Take `CC(Cc1c[nH]c2ccccc12)(NCc1cc2ccccc2o1)C(=O)NCC(=O)c1ccccc1` (stereo not drawn) [compound 163, 2-[(Benzofuran-2-ylmethyl)-amino]-3-(1H-indol-3-yl)-2-methyl-N-(2-oxo-2-phenyl-ethyl)-propionamide]: the IC50 worked out at 166 nM.

With `CC(NC(=O)C(C)(Cc1c[nH]c2ccccc12)NCc1cc2ccccc2o1)c1cccnc1` (stereo not drawn) [compound 44, 2-[(Benzofuran-2-ylmethyl)-amino]-3-(1H-indol-3-yl)-2-methyl-N-(1-pyridin-3-yl-ethyl)-propionamide], the IC50 stood at 151 nM.

For the compound `CC(Cc1c[nH]c2ccccc12)(NCc1cc2ccccc2o1)C(=O)NCc1cnc(N)nc1N` (stereo not drawn) [compound 179, 2-[(Benzofuran-2-ylmethyl)-amino]-N-(2,4-diamino-pyrimidin-5-ylmethyl)-3-(1H-indol-3-yl)-2-methyl-propionamide], the half-maximal inhibitory concentration (IC50) turned out to be 5920 nM.

For the compound `CC(Cc1c[nH]c2ccccc12)(NCc1cc2ccccc2o1)C(=O)NCc1nc2ccccc2[nH]1` (stereo not drawn) [compound 103, 2-[(Benzofuran-2-ylmethyl)-amino]-N-(1H-benzoimidazol-2-ylmethyl)-3-(1H-indol-3-yl)-2-methyl-propionamide], the IC50 stood at 74 nM.

With `CC(Cc1c[nH]c2ccccc12)(NCc1cc2ccccc2o1)C(=O)NCC1CCCCC1` (stereo not drawn) [compound 27, 2-[(Benzofuran-2-ylmethyl)-amino]-N-cyclohexylmethyl-3-(1H-indol-3-yl)-2-methyl-propionamide], the IC50 stood at 311 nM.
